Values after ≈ are worked out from the molar mass of the structure shown.
Tests used:
[1] = tested on: Synechococcus elongatus; details: Begemann et al. 2013; cited from earlier work
[2] = tested on: C. autoethanogenum strain with aldehyde::ferredoxin oxidoreductase (AOR) enzymes deleted; assay: 3-HP challenge experiment, autotrophic growth in Schott bottles; format: cell-based, Clostridium autoethanogenum
Experimental: FIGS. 2A-2B show autotrophic growth of Clostridium autoethanogenum Δaor strain in the presence of different amounts of 3-hydroxypropionic acid (at 0, 0.2, 0.5, 1, 2, 5 and 10 g/L) in Schott bottles. FIG. 2A: Growth profile; FIG. 2B: Peak Biomass. Unc=Unchallenged; N=2; Error bar=S.D.
To study the toxicity of 3-HP on autotrophic growth of C. autoethanogenum, a 3-HP challenge experiment (at 0, 0.2, 0.5, 1, 2, 5 and 10 g/L) was conducted in Schott bottles with synthetic gas blend (50% CO, 10% H2, 30% CO2 and 10% N2) using a strain with aldehyde::ferredoxin oxidoreductase (AOR) enzymes deleted (FIG. 2). […] Unc=Unchallenged; N=2; Error bar=S.D.

Which minimal inhibitory concentration [1] does the source give for `O=C(O)CCO` [Strain 3-HP, 3-Hydroxypropionate] here?
The minimal inhibitory concentration was 180 µg/mL (≈ 2000 µM).

What about the “effect on growth rate” value ([2]; 5 g/L 3-HP) of the same molecule?
Its value is “reduced the growth rate”.

What about the “reduction of peak OD600 nm vs unchallenged culture” value ([2]; 5 g/L 3-HP, synthetic gas blend 50% CO, 10% H2, 30% CO2, 10% N2, N=2) of the same molecule?
The value was 22%.

And the “effect on growth rate” value ([2]; 10 g/L 3-HP)?
Its value is “more pronounced decrease in growth rate”.

What about the “decrease in peak OD600 nm vs unchallenged culture” value ([2]; 10 g/L 3-HP, synthetic gas blend 50% CO, 10% H2, 30% CO2, 10% N2, N=2) of the same molecule?
Its value is 40%.

Reference: US11788092B2, “Recombinant microorganisms and uses therefor” (LanzaTech, Inc., priority 2021, dated 2023)
